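Interpolation was linear, between the two tested concentrations surrounding the appropriate level; five concentrations were tested over 48 hours in 96-well plates. TGI is the concentration that stops growth completely.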
Tests used:
Assay in all cases: growth of human tumour cells (NCI), 48 h
OVCAR-3 ovarian = system: OVCAR-3 ovarian
HCT-15 colon = system: HCT-15 colon
SK-OV-3 ovarian = system: SK-OV-3 ovarian
MALME-3M melanoma = system: MALME-3M melanoma
NCI-H460 lung = system: NCI-H460 lung
SR leukemia = system: SR leukemia
LOX IMVI melanoma = system: LOX IMVI melanoma
MOLT-4 leukemia = system: MOLT-4 leukemia
SN12C renal = system: SN12C renal
LXFL 529 NSCLC = system: LXFL 529 NSCLC
SNB-78 CNS = system: SNB-78 CNS

`CN(C)CCCN1C(=S)N(CCCN(C)C)c2c3cc(O)ccc3nc3c([N+](=O)[O-])ccc1c23` showed a TGI (OVCAR-3 ovarian) of 5.56 µM, a TGI (HCT-15 colon) of 12.6 µM and a TGI (SK-OV-3 ovarian) of 17.2 µM. It also gave a TGI (MALME-3M melanoma) of 22.2 µM, a TGI (NCI-H460 lung) of 6.7 µM and a TGI (SR leukemia) greater than 22.5 µM. It also gave a TGI (LOX IMVI melanoma) of 5.9 µM, a TGI (MOLT-4 leukemia) of 8.81 µM and a TGI (SN12C renal) of 36.1 µM.

Molecule `COc1ccc(C#CC(=O)O)c(OC)c1` has a TGI (OVCAR-3 ovarian) greater than 100 µM, a TGI (HCT-15 colon) greater than 100 µM and a TGI (SK-OV-3 ovarian) greater than 100 µM. It also gave a TGI (MALME-3M melanoma) greater than 100 µM, a TGI (NCI-H460 lung) greater than 100 µM and a TGI (SR leukemia) greater than 100 µM. It also gave a TGI (LOX IMVI melanoma) greater than 100 µM, a TGI (MOLT-4 leukemia) greater than 100 µM and a TGI (SN12C renal) greater than 100 µM.

Work on `C=CCn1c(=O)ccn(COCCO)c1=O` yielded a TGI (OVCAR-3 ovarian) greater than 100 µM, a TGI (MALME-3M melanoma) greater than 100 µM and a TGI (NCI-H460 lung) greater than 100 µM. For the same molecule, the TGI (SR leukemia) was greater than 100 µM, the TGI (LOX IMVI melanoma) was greater than 100 µM and the TGI (MOLT-4 leukemia) was greater than 100 µM. The TGI (SN12C renal) was greater than 100 µM.

Molecule `O=C1/C(=C\c2cccc(Oc3ccccc3)c2)S(=O)(=O)C(c2ccccc2)N1Cc1ccccc1` (centres undefined) has a TGI (OVCAR-3 ovarian) of 34.2 µM, a TGI (HCT-15 colon) of 33.7 µM and a TGI (SK-OV-3 ovarian) greater than 100 µM. The TGI (MALME-3M melanoma) was 37.8 µM, the TGI (NCI-H460 lung) was 40.9 µM and the TGI (SR leukemia) was 46.2 µM. It also gave a TGI (LOX IMVI melanoma) of 62.9 µM, a TGI (MOLT-4 leukemia) of 7.7 µM and a TGI (SN12C renal) of 58.6 µM.

In the case of `N#CC(C#N)=CNC(=S)c1ccncc1`, the TGI (OVCAR-3 ovarian) is reported as 1.36 µM, the TGI (HCT-15 colon) is reported as greater than 100 µM and the TGI (SK-OV-3 ovarian) is reported as greater than 100 µM. For the same molecule, the TGI (MALME-3M melanoma) was greater than 100 µM, the TGI (NCI-H460 lung) was greater than 100 µM and the TGI (SR leukemia) was greater than 100 µM. It also gave a TGI (LOX IMVI melanoma) greater than 100 µM, a TGI (MOLT-4 leukemia) greater than 100 µM and a TGI (SN12C renal) greater than 100 µM.

`Cc1cn(C2OC(C)(CO)C(O)C2O)c(=O)[nH]c1=O` (centres undefined) showed a TGI (OVCAR-3 ovarian) greater than 100 µM, a TGI (HCT-15 colon) greater than 100 µM and a TGI (SK-OV-3 ovarian) greater than 100 µM. The TGI (MALME-3M melanoma) was greater than 100 µM, the TGI (NCI-H460 lung) was greater than 100 µM and the TGI (SR leukemia) was greater than 100 µM. It also gave a TGI (LXFL 529 NSCLC) greater than 100 µM, a TGI (LOX IMVI melanoma) greater than 100 µM and a TGI (MOLT-4 leukemia) greater than 100 µM. It also gave a TGI (SN12C renal) greater than 100 µM.

Work on `C=CCNC(=S)/N=C/c1c(O)c2ccccc2oc1=O` yielded a TGI (OVCAR-3 ovarian) greater than 100 µM, a TGI (HCT-15 colon) greater than 100 µM and a TGI (SK-OV-3 ovarian) greater than 100 µM. For the same molecule, the TGI (MALME-3M melanoma) was 96 µM, the TGI (NCI-H460 lung) was greater than 100 µM and the TGI (LXFL 529 NSCLC) was greater than 100 µM. For the same molecule, the TGI (LOX IMVI melanoma) was greater than 100 µM, the TGI (MOLT-4 leukemia) was greater than 100 µM and the TGI (SNB-78 CNS) was greater than 100 µM. It also gave a TGI (SN12C renal) greater than 100 µM.

`Brc1cccc(Nc2nc(-c3cccs3)nc3ccc(Br)cc23)c1` showed a TGI (OVCAR-3 ovarian) of 82.1 µM, a TGI (HCT-15 colon) greater than 100 µM and a TGI (SK-OV-3 ovarian) greater than 100 µM. The TGI (MALME-3M melanoma) was 65.2 µM, the TGI (NCI-H460 lung) was greater than 100 µM and the TGI (SR leukemia) was greater than 100 µM. It also gave a TGI (LOX IMVI melanoma) greater than 100 µM, a TGI (MOLT-4 leukemia) greater than 100 µM and a TGI (SN12C renal) of 71.3 µM.

For `O=c1c2cc3c(cc2[nH]c2ncccc12)OCO3`, the TGI (OVCAR-3 ovarian) was greater than 10 µM, the TGI (HCT-15 colon) was greater than 10 µM and the TGI (SK-OV-3 ovarian) was greater than 10 µM. For the same molecule, the TGI (MALME-3M melanoma) was greater than 10 µM, the TGI (NCI-H460 lung) was greater than 10 µM and the TGI (SR leukemia) was greater than 10 µM. For the same molecule, the TGI (LOX IMVI melanoma) was greater than 10 µM, the TGI (MOLT-4 leukemia) was greater than 10 µM and the TGI (SN12C renal) was greater than 10 µM.

Work on `CCN(CC)CCOc1ccc(N2C(=O)c3cc(OC)c(OC)cc3C2=O)cc1` yielded a TGI (OVCAR-3 ovarian) greater than 100 µM, a TGI (HCT-15 colon) greater than 100 µM and a TGI (SK-OV-3 ovarian) greater than 100 µM. It also gave a TGI (MALME-3M melanoma) greater than 100 µM, a TGI (NCI-H460 lung) greater than 100 µM and a TGI (SR leukemia) greater than 100 µM. For the same molecule, the TGI (LOX IMVI melanoma) was greater than 100 µM, the TGI (MOLT-4 leukemia) was greater than 100 µM and the TGI (SN12C renal) was greater than 100 µM.

`Cc1cc(=O)c2c([nH]1)NS(=O)(=O)NC2=O` gave a TGI (OVCAR-3 ovarian) greater than 100 µM, a TGI (HCT-15 colon) greater than 100 µM and a TGI (SK-OV-3 ovarian) greater than 100 µM. It also gave a TGI (MALME-3M melanoma) greater than 100 µM, a TGI (SR leukemia) greater than 100 µM and a TGI (LXFL 529 NSCLC) greater than 100 µM. The TGI (MOLT-4 leukemia) was greater than 100 µM, the TGI (SNB-78 CNS) was greater than 100 µM and the TGI (SN12C renal) was greater than 100 µM.

— PubChem BioAssay (NCI)
